Test results reported in patent publication US10590384B2, “Luterial and method for isolating and culturing the same” (LUTERION CO., LTD., priority 2014, dated 2020).

Columns and labels:
[1] = Measurement of ATP content in media (luciferin-luciferase reaction, luminometer); conditions: luterial media with SSF (12 hr) compared with luterial media with SSH (12 hr)
Description: SSH and SSF were further added to the media and their effects on ATP production by luterial were examined. A mediacontaining SSF induced higher ATP production by luterialcompared to a mediawith SSH, thus finding a medium mix that is capable of efficiently increasing the ATP production by luterial (FIG. 18).
10 mL of each of four media, including a control, luterial, luterial with SSH (12 hr) and luterial with SSF (12 hr), was placed in a tube, and glucose (100 mg/mL) and ADP substrate (1 mM) were added thereto, followed by culture in water bath at 37° C. At 30-min intervals after the start of the culture, 100 μl of a sample was collected, placed in a tube, and diluted 10-fold with 900 μl of distilled water. Then, 10 μl of the sample was transferred into a fresh tube, and 100 μl of luciferase reagent contained in the ATP kit was added thereto, and measurement was immediately performed five times using a luminometer.

[2] = tested on: SKOV3 ovarian cancer cell line; experiment: MTT assay, growth inhibition of SKOV3 ovarian cancer cell line; assay type: cell-based; conditions: positive control drug; cell line not stated (SKOV3 and A2780 tested, FIG. 27)

Row | ATP concentration in luterial media with additive [1] | SMILES | IC50 [2] [µM]
1 | higher than that in the SSH-added group | O=c1c(O)c(-c2ccc(O)c(O)c2)oc2cc(O)ccc12 [SSF, fisetin] | 
2 |  | N.N.[Cl][Pt][Cl] [cisplatin] | 100
